The numbers were not newly measured in publication PMC11125333, “Self-Immolative Domino Dendrimers as Anticancer-Drug Delivery Systems: A Review” (Pharmaceutics, 2024), which cites them from elsewhere.

On the set-up of this data set: method as in PMID 25924099. The note with it: UV irradiation at 365 nm.

Turning to `CC[C@@]1(O)C(=O)OCc2c1cc1n(c2=O)Cc2cc3ccccc3nc2-1` [CAMP, camptothecin], the “effect of UV irradiation on cytotoxicity / cell-killing efficacy” value is “did not increase”.
